Reference: patent publication US8999889B2, “Substituted ketonic isoxazoline compounds and derivatives for combating animal pests” (BASF SE, priority 2010, dated 2015)

Key:
Format in all cases: in vivo
Myzus persicae = experiment: Green peach aphid (Myzus persicae), artificial diet under membrane, systemic; details: 72 h, Myzus persicae adults, 3 days, read-out: mortality in comparison with untreated controls
Source text: B.8 Green Peach Aphid (Myzus Persicae)
For evaluating control of green peach aphid (Myzus persicae) through systemic means the test unit consisted of 96-well-microtiter plates containing liquid artificial diet under an artificial membrane.
The compounds were formulated using a solution containing 75% v/v water and 25% v/v DMSO. Different concentrations of formulated compounds were pipetted into the aphid diet, using a custom built pipetter, at two replications.
After application, 5-8 adult aphids were placed on the artificial membrane inside the microtiter plate wells. The aphids were then allowed to suck on the treated aphid diet and incubated at about 23±1° C. and about 50±5% relative humidity for 3 days. Aphid mortality and fecundity was then visually assessed.

Megoura viciae = experiment: Vetch aphid (Megoura viciae), broad bean leaf disks in microtiter plates; details: foliar, 120 h, Megoura viciae adults, 5 days, read-out: mortality in comparison with untreated controls
Procedure: B.5 Vetch aphid (Megoura viciae)
For evaluating control of vetch aphid (Megoura viciae) through contact or systemic means the test unit consisted of 24-well-microtiter plates containing broad bean leaf disks.
The compounds were formulated using a solution containing 75% v/v water and 25% v/v DMSO. Different concentrations of formulated compounds were sprayed onto the leaf disks at 2.5 μl, using a custom built micro atomizer, at two replications. After application, the leaf disks were air-dried and 5-8 adult aphids placed on the leaf disks inside the microtiter plate wells. The aphids were then allowed to suck on the treated leaf disks and incubated at about 23±1° C. and about 50±5% relative humidity for 5 days. Aphid mortality and fecundity was then visually assessed.

Heliothis virescens = experiment: Tobacco budworm (Heliothis virescens) I, sprayed cotton plants; details: 96 h, Heliothis virescens larvae, 4 days after treatment, read-out: mortality in comparison with untreated controls
Procedure: B.6 Tobacco Budworm (Heliothis virescens) I
(§1) The active compounds were formulated in cyclohexanone as a 10,000 ppm solution supplied in tubes. The tubes were inserted into an automated electrostatic sprayer equipped with an atomizing nozzle and they served as stock solutions for which lower dilutions were made in 50% acetone:50% water (v/v). A nonionic surfactant (Kinetic®) was included in the solution at a volume of 0.01% (v/v).
Cotton plants were grown 2 plants to a pot and selected for treatment at the cotyledon stage. Test solutions were sprayed onto the foliage by an automated electrostatic plant sprayer equipped with an atomizing spray nozzle. The plants were dried in the sprayer fume hood and then removed from the sprayer. Each pot was placed into perforated plastic bags with a zip closure. About 10 to 11 budworm larvae were placed into the bag and the bags zipped closed. Test plants were maintained in a growth room at about 25° C. and about 20-40% relative humidity for 4 days, avoiding direct exposure to fluorescent light (24 hour photoperiod) to prevent trapping of heat inside the bags. Mortality and reduced feeding were assessed 4 days after treatment, compared to untreated control plants.

Bemisia argentifolii = experiment: Silverleaf whitefly (Bemisia argentifolii), sprayed cotton plants; details: 72 h, Bemisia argentifolii adults, 3 days after treatment, read-out: mortality in comparison with untreated controls
Source text: B.3 Silverleaf Whitefly (Bemisia argentifolii)
as §1
Cotton plants at the cotyledon stage (one plant per pot) were sprayed by an automated electrostatic plant sprayer equipped with an atomizing spray nozzle. The plants were dried in the sprayer fume hood and then removed from the sprayer. Each pot was placed into a plastic cup and about 10 to 12 whitefly adults (approximately 3-5 days old) were introduced. The insects were collected using an aspirator and a nontoxic Tygon® tubing connected to a barrier pipette tip. The tip, containing the collected insects, was then gently inserted into the soil containing the treated plant, allowing insects to crawl out of the tip to reach the foliage for feeding. Cups were covered with a reusable screened lid. […] Mortality was assessed 3 days after treatment, compared to untreated control plants.

Ceratitis capitata = experiment: Mediterranean fruitfly (Ceratitis capitata), microtiter plate with insect diet and eggs; details: 120 h, egg and larval mortality after 5 days, read-out: mortality in comparison with untreated controls
Procedure: B.2 Mediterranean Fruitfly (Ceratitis capitata)
For evaluating control of Mediterranean fruitfly (Ceratitis capitata) the test unit consisted of microtiter plates containing an insect diet and 50-80 C. capitata eggs.
The compounds were formulated using a solution containing 75% v/v water and 25% v/v DMSO. Different concentrations of formulated compounds were sprayed onto the insect diet at 5 μl, using a custom built micro atomizer, at two replications. After application, microtiter plates were incubated at about 28±1° C. and about 80±5% relative humidity for 5 days. Egg and larval mortality was then visually assessed.

Spodoptera eridania = experiment: Southern armyworm (Spodoptera eridania), sprayed lima bean plants; details: 96 h, Spodoptera eridania larvae, 4 days after treatment, read-out: mortality in comparison with untreated controls
Procedure: B.4 Southern Armyworm (Spodoptera eridania)
as §1
Lima bean plants (variety Sieva) were grown 2 plants to a pot and selected for treatment at the 1st true leaf stage. Test solutions were sprayed onto the foliage by an automated electrostatic plant sprayer equipped with an atomizing spray nozzle. The plants were dried in the sprayer fume hood and then removed from the sprayer. Each pot was placed into perforated plastic bags with a zip closure. About 10 to 11 armyworm larvae were placed into the bag and the bags zipped closed. Test plants were maintained in a growth room at about 25° C. and about 20-40% relative humidity for 4 days, avoiding direct exposure to fluorescent light (24 hour photoperiod) to prevent trapping of heat inside the bags. Mortality and reduced feeding were assessed 4 days after treatment, compared to untreated control plants.

Plutella xylostella = experiment: Diamond back moth (Plutella xylostella), dipped Chinese cabbage leaves; details: mortality recorded 24, 72, and 120 hours after treatment, read-out: mortality in comparison with untreated controls
Procedure: If not otherwise specified the test solutions were prepared as follow:
The active compound was dissolved at the desired concentration in a mixture of 1:1 (vol:vol) distilled water:acteon. The test solution was prepared at the day of use and in general at concentrations of ppm (wt/vol).
B.1 Diamond Back Moth (Plutella xylostella)
Leaves of Chinese cabbage were dipped in test solution and air-dried. Treated leaves were placed in petri dished lined with moist filter paper. Mortality was recorded 24, 72, and 120 hours after treatment.

Anthonomus grandis = experiment: Boll weevil (Anthonomus grandis), microtiter plate with insect diet and eggs; details: 120 h, egg and larval mortality after 5 days, read-out: mortality in comparison with untreated controls
Procedure: B.7 Boll Weevil (Anthonomus grandis)
For evaluating control of boll weevil (Anthonomus grandis) the test unit consisted of 24-well-microtiter plates containing an insect diet and 20-30 A. grandis eggs.
The compounds were formulated using a solution containing 75% v/v water and 25% v/v DMSO. Different concentrations of formulated compounds were sprayed onto the insect diet at 20 μl, using a custom built micro atomizer, at two replications.
After application, microtiter plates were incubated at about 23±1° C. and about 50±5% relative humidity for 5 days. Egg and larval mortality was then visually assessed.

Cc1cc(C2=NOC(c3cc(Cl)cc(Cl)c3)(C(F)(F)F)C2)ccc1C(=O)CC(C)C (stereo not drawn) [Compound 1-2, 1-{4-[5-(3,5-Dichloro-phenyl)-5-trifluoromethyl-4,5-dihydro-isoxazol-3-yl]-2-methyl-phenyl}-3-methyl-butan-1-one]
≥ 75%: mortality at 2500 ppm (Myzus persicae) | mortality at 2500 ppm (Megoura viciae) | mortality at 2500 ppm (Heliothis virescens) | mortality at 300 ppm (Bemisia argentifolii) | mortality at 2500 ppm (Ceratitis capitata) | mortality at 300 ppm (Spodoptera eridania) | mortality at 300 ppm (Plutella xylostella)

CC(=O)c1ccc(C2=NOC(c3cc(Cl)cc(Cl)c3)(C(F)(F)F)C2)cc1C (stereo not drawn) [Compound 1-1, 1-{4-[5-(3,5-Dichloro-phenyl)-5-trifluoromethyl-4,5-dihydro-isoxazol-3-yl]-2-methyl-phenyl}-ethanone]
≥ 75%: mortality at 2500 ppm (Anthonomus grandis) | mortality at 2500 ppm (Myzus persicae) | mortality at 2500 ppm (Megoura viciae) | mortality at 2500 ppm (Heliothis virescens) | mortality at 300 ppm (Bemisia argentifolii) | mortality at 2500 ppm (Ceratitis capitata) | mortality at 300 ppm (Spodoptera eridania) | mortality at 300 ppm (Plutella xylostella)
